According to PMC8272121, “Synthesis and Evaluation of Chalcone-Quinoline Based Molecular Hybrids as Potential Anti-Malarial Agents” (Molecules, 2021):
In brackets after ≈: the same amount, converted by molar mass.

Legend:
[1] = test system: Chinese Hamster Ovary (CHO) mammalian cell line; assay: Cytotoxicity MTT assay on CHO cells; assay type: cell-based; conditions: for IC50: Cricetulus griseus, CHO, Chinese hamster ovarian cell line, MTT, 48 h; for SI (selectivity index): SI = IC50 (CHO)/IC50 (PfNF54)
Description: All the synthesized molecular hybrids (6–27) were evaluated for in vitro antiplasmodial activity against the drug-sensitive strain (NF54) of P. falciparum and for cytotoxicity against the Chinese Hamster Ovary (CHO) mammalian cell line using emetine as a reference drug. Aqueous solubility was determined at pH 6.5 (Table 2). Cytotoxicity assay. […] The reference standard, emetine, was prepared to 2 mg/mL in distilled water while stock solutions of test compounds were prepared to 20 mg/mL in 100% DMSO with the highest concentration of solvent to which the cells were exposed having no measurable effect on the cell viability. The initial concentration of the compounds and control was 100 μg/mL, which was serially diluted in complete medium with 10-fold dilutions to give six concentrations, the lowest being 0.001 μg/mL. Plates were incubated for 48 h with 100 μL of drug and 100 μL of cell suspension in each well and developed afterward by adding 25 μL of sterile MTT (Thermo Fisher Scientific) to each well, followed by 4 h of incubation in the dark. The plates were then centrifuged; the medium was aspirated, and 100 μL of DMSO was added to dissolve crystals before reading the absorbance at 540 nm. Data were analyzed, and the sigmoidal dose-response was derived using GraphPad Prism v 4.0 software (La Jolla). All experiments were performed for at least three independent biological repeats, each with technical triplicates.

[2] = test system: P. falciparum NF54 (drug-sensitive strain); assay: In vitro antiplasmodial assay (parasite lactate dehydrogenase), chloroquine-sensitive NF54 strain; assay type: cell-based, Plasmodium falciparum; conditions: Plasmodium falciparum; sensitive (NF54) strain of P. falciparum; pLDH assay, 48 h; mean of ≥2 independent experiments; read-out: PfNF54 IC50
Description: All the synthesized molecular hybrids (6–27) were evaluated for in vitro antiplasmodial activity against the drug-sensitive strain (NF54) of P. falciparum and for cytotoxicity against the Chinese Hamster Ovary (CHO) mammalian cell line using emetine as a reference drug. Aqueous solubility was determined at pH 6.5 (Table 2).
In-vitro anti-plasmodium assay. Compounds were tested using parasite lactate dehydrogenase assay as a marker for parasite survival. The respective stock solutions of CQ diphosphate and test compounds were prepared by dissolving 2 mg/mL in distilled water (for CQ) and 100% DMSO for test compounds. The solutions were then stored at −20 °C, with further dilutions prepared on the day of the experiment. The cultures were synchronized in the ring stage as described previously using 15 mL of 5% (w/v) d-sorbitol in water. Synchronous cultures of PfNF54 (CQS) in the late trophozoite stage were prepared to 2% parasitemia and 2% hematocrit. […] Following incubation, 100 μL of MalStat reagent and 15 μL of resuspended culture were combined, followed by addition of 25 μL of nitro blue tetrazolium chloride (NBT). The plates were kept in the dark for about 10 min to fully develop, and absorbance was measured at 620 nm on a microplate reader. Raw data were exported to Microsoft Excel for dose-response analysis.

[3] = test system: P. falciparum K1 (multi-drug resistant strain); assay: In vitro antiplasmodial activity against multi-drug resistant K1 strain; assay type: cell-based; conditions: Plasmodium falciparum; multi-drug resistant K1 strain of P. falciparum; read-out: PfK1 IC50
[4] = Aqueous solubility, miniaturized shake flask method (HPLC-DAD); assay type: physicochemical; conditions: aqueous solution, aqueous buffer, thermodynamic from solid, pH 6.5, shake flask 20 h, 25 °C
Description: All the synthesized molecular hybrids (6-27) were evaluated for in vitro antiplasmodial activity against the drug-sensitive strain (NF54) of P. falciparum and for cytotoxicity against the Chinese Hamster Ovary (CHO) mammalian cell line using emetine as a reference drug. Aqueous solubility was determined at pH 6.5 (Table 2). Aqueous solubility. Water solubility was analyzed using a miniaturized shake flask method. Ten millimolar stock solutions of each of the compounds were used to prepare calibration standards (10-220 μM) in DMSO. The same 10 mM stock solutions were accurately dispensed in duplicate into 96-well plates, and the DMSO, dried down ([…],90 min, 37 °C). Thereafter, the samples were reconstituted (200 μM) in an aqueous solution and shaken (20 h, 25 °C). The solutions were analyzed by means of HPLC-DAD (Agilent1200 Rapid Resolution HPLC with a diode array detector). Best fit calibration curves were constructed using the calibration standards, which were used to determine the aqueous samples' solubility.

O=C(/C=C/c1ccccc1Br)c1ccc(S(=O)(=O)NCCCNc2ccnc3cc(Cl)ccc23)cc1 [Compound 8, (E)-4-(3-(2-bromophenyl)acryloyl)-N-(3-((7-chloroquinolin-4-yl)amino)propyl)benzenesulfonamide]
IC50 [1]: 43200 nM | SI (selectivity index) [1]: 435 | IC50 [2]: 100 nM | IC50 [3]: 2970 nM

O=C(/C=C/c1ccc(Cl)cc1)c1ccc(S(=O)(=O)NCCCNc2ccnc3cc(Cl)ccc23)cc1 [Compound 11, (E)-4-(3-(4-chlorophenyl)acryloyl)-N-(3-((7-chloroquinolin-4-yl)amino)propyl)benzenesulfonamide]
IC50 [1]: 41200 nM | SI (selectivity index) [1]: 416.2 | IC50 [2]: 100 nM | IC50 [3]: 6000 nM

COc1ccc(/C=C/C(=O)c2ccc(S(=O)(=O)NCCCNc3ccnc4cc(Cl)ccc34)cc2)cc1 [Compound 12, (E)-N-(3-((7-chloroquinolin-4-yl)amino)propyl)-4-(3-(4-methoxyphenyl)acryloyl)benzenesulfonamide]
IC50 [1]: 43300 nM | SI (selectivity index) [1]: 393.6 | IC50 [2]: 110 nM | melting point: 221 to 223 °C | IC50 [3]: 590 nM

O=C(/C=C/c1ccc(F)cc1)c1ccc(S(=O)(=O)NCCNc2ccnc3cc(Cl)ccc23)cc1 [Compound 24, (E)-N-(2-((7-chloroquinolin-4-yl)amino)ethyl)-4-(3-(4-fluorophenyl)acryloyl)benzenesulfonamide]
IC50 [1]: 14500 nM | SI (selectivity index) [1]: 25.5 | IC50 [2]: 570 nM | solubility at 20 h [4]: < 5 µM | melting point: 222 to 224 °C

O=C(/C=C/c1ccccc1Cl)c1ccc(S(=O)(=O)NCCNc2ccnc3cc(Cl)ccc23)cc1 [Compound 25, (E)-4-(3-(2-chlorophenyl)acryloyl)-N-(2-((7-chloroquinolin-4-yl)amino)ethyl)benzenesulfonamide]
IC50 [1]: 35400 nM | SI (selectivity index) [1]: 95.7 | IC50 [2]: 370 nM | solubility at 20 h [4]: 19 µM (≈ 10 µg/mL) | melting point: 209 to 211 °C

O=C(/C=C/c1ccc2c(c1)OCO2)c1ccc(S(=O)(=O)NCCCNc2ccnc3cc(Cl)ccc23)cc1 [Compound 26, (E)-4-(3-(benzo[d][1,3]dioxol-5-yl)acryloyl)-N-(3-((7-chloroquinolin-4-yl)amino)propyl)benzenesulfonamide]
IC50 [1]: 34100 nM | SI (selectivity index) [1]: 49.5 | IC50 [2]: 690 nM | solubility at 20 h [4]: 200 µM (≈ 110 µg/mL) | melting point: 222 to 224 °C
